Patent US9814732B2, “Ulipristal acetate for prevention and treatment of breast tumors” (LABORATOIRE HRA-PHARMA, priority 2012, dated 2017)

Biological target: T1, GR (Homo sapiens, UniProt P04150)
T1 sequence (P04150 1-777): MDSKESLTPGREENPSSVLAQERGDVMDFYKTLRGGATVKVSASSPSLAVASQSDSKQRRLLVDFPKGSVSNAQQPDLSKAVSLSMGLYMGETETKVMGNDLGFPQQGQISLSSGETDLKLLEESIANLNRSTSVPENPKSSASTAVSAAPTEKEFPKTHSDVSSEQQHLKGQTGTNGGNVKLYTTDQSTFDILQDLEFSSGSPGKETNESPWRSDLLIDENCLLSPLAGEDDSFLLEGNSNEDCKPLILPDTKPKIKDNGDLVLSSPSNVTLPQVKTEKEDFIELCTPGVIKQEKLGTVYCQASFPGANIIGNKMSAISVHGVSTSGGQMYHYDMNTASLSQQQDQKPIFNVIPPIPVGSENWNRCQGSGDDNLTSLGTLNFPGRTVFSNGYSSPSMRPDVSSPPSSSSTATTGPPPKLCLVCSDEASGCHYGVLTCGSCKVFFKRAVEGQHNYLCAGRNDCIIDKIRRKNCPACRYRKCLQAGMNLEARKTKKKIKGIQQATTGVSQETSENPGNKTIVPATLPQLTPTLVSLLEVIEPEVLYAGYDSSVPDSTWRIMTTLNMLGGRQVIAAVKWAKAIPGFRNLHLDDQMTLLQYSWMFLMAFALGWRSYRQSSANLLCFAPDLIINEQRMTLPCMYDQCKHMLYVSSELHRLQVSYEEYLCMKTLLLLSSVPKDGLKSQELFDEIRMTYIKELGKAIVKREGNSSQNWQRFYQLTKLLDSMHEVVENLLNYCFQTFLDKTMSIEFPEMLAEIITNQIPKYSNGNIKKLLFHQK
Assay: GRE-Luc reporter gene transactivation in HBE cells
Format: cell-based
Conditions: DEX 100 nM, test compound 100 nM, read-out: inhibition of DEX induced luciferase transactivation (GRE-Luc)

**Q.** For `CC(=O)O[C@]1(C(C)=O)CCC2C3CCC4=CC(=O)CCC4=C3[C@@H](c3ccc(N(C)C)cc3)C[C@@]21C` (stereo partly shown) [UPA, 17[…]-acetoxy-11[…]-[4-N,N-dimethylamino-phenyl)-19-norpregna-4,9-diene-3,20-dione], which inhibition at 0.1 µM is on record?
**A.** 41.3 ± 5.8%
